Data published in patent US10004775B2, “Inhibition of hypoxia-inducible factor activity with carica papaya extracts” (The Regents of the University of California, priority 2013, dated 2018).

Columns and labels:
HIF = HIF reporter assay (hypoxia-driven firefly luciferase reporter); assay type: cell-based, human; conditions: cisplatin 0.1 mM; hypoxic HRE-luc Saos2 cells
Protocol: A human osteosarcoma cell line, Saos-2 stably expressing four copies of the erythropoietin hypoxia response elements (HRE-luc Saos2; […] et al., Malaysian Patent Application #: PI 2012003492), was cultured in DMEM medium (PAA, USA) supplemented with 10% (v/v) fetal bovine serum (FBS; PAA, USA) and 1% (v/v) antibiotic-antimycotic (PAA, USA) in a humidified incubator supplied with ambient oxygen and 5% CO2 at 37° C. An hypoxic gaseous environment was created by incubating cells in a ProOx in vitro chamber (BioSpherix), controlled by ProOx model 110 (BioSpherix). The cells were supplied 0.5% O2, 94.5% N2 and 5% CO2 at 37° C. Cells were co-transfected with a hypoxia-driven firefly luciferase reporter plasmid construct containing four copies of the erythropoietin (EPO) hypoxia response elements (HRE) and a pRL-CMV expressing Renilla luciferase as described previously (Kaluz et al., 2008, […] et al., 2009, […] et al. Malaysian Patent Application No. PI 2012003492). Transfected cells were treated with appropriate concentrations of plant extracts and incubated in either normoxic or hypoxic conditions. After 24 h, firefly and Renilla luciferase signal intensities were measured (Kaluz et al., 2008, […] et al, 2009). Percent HIF inhibition was calculated as a ratio of the difference between untreated and plant extract-treated sample to the untreated sample. […]

Saos-2 cells = experiment: MTT assay of cell viability after 24 h treatment in normoxic or hypoxic conditions; assay type: cell-based, human; conditions: FIG. 1A
Protocol: The leaves were washed with distilled water and left to air-dry at room temperature or in an oven at 40° C. until a constant weight was obtained. Dried leaves were then blended into a powder form, soaked and extracted in methanol at a 1:3 ratio (w/v) for three days at room temperature. Extracts were filtered by Whatman No. 1 filter paper with the aid of a vacuum pump. The residues were re-extracted twice using the same methanolic method. Filtrates were then concentrated by rotary evaporator at a maximum of 40° C. Concentrated extracts were collected in glass vials with push-in caps and dried in an oven at 40° C. until a constant weight was obtained. All of the crude extracts were stored −80° C. […] These concentrations were determined empirically and selected to cover a range of effects, ranging from no effect to significant cytotoxicity. […] After a further 4 h of incubation in 5% CO2 at 37° C., formazan precipitates that formed were dissolved with 100 μl of DMSO and the reaction was read in a microplate reader (Model 550, BioRad, Hercules, Calif.) at 570 nm absorbance and 630 nm as the reference wavelength.

SMILES	percent HIF inhibition (HIF)	IC50 in hypoxia compared with normoxia, in words (Saos-2 cells)
N.N.[Cl][Pt][Cl] [cisplatin]	around 60%	significantly higher than in normoxia
CN1C(=O)[C@]2(Cc3cn([C@]45C[C@@]67SS[C@@](CO)(C(=O)N6[C@H]4Nc4ccccc45)N(C)C7=O)c4ccccc34)SS[C@@]1(CO)C(=O)N2C [chetomin]	–	increased in hypoxia
